Laboratory results published in US8637550B2, “Heteroaryl diamide compounds useful as MMP-13 inhibitors” (Boehringer Ingelheim International GmbH, priority 2008, dated 2014).

Target: MMP-13 (Homo sapiens, UniProt P45452)
Experiment: EnzoLyte 520 Generic MMP Assay Kit, 5-FAM/QXL520 FRET peptide substrate
Assay type: biochemical
From the text: The EnzoLyte™ 520 Generic MMP Assay Kit (AnaSpec Inc.) can detect the activity of several MMPs including MMP-1, 2, 3, 7, 8, 9, 13, and 14. This kit uses a 5-FAM/QXL™520 fluorescence resonance energy transfer (FRET) peptide as an MMP substrate.

Row | SMILES | IC50 [nM]
1 | CNC(=O)[C@@H](NC(=O)c1ccc(-c2ccc(SC)cc2)o1)C1CCCCC1 [N-[(1S)-1-cyclohexyl-2-(methylamino)-2-oxoethyl]-5-[4-(methylsulfanyl)phenyl]furan-2-carboxamide] | 175
2 | CNC(=O)[C@@H](NC(=O)c1ccc(-c2cccc(CNC(=O)c3cnccn3)c2)o1)C(C)C [N-[3-(5-{[(1S)-2-methyl-1-(methylcarbamoyl)propyl]carbamoyl}-2-furyl)benzyl]pyrazine-2-carboxamide] | 32
3 | NC(=O)COCCNC(=O)[C@@H](NC(=O)c1ccc(-c2ccc(Cl)cc2)o1)C1CCCCC1 [N-[(1S)-2-{[2-(2-amino-2-oxoethoxy)ethyl]amino}-1-cyclohexyl-2-oxoethyl]-5-(4-chlorophenyl)furan-2-carboxamide] | 325
4 | CNC(=O)[C@@H](NC(=O)c1ccc(-c2cccc(CNC(=O)c3cccc(C(C)C)c3)c2)o1)C(C)C [5-{3-[(3-Isopropyl-benzoylamino)-methyl]-phenyl}-furan-2-carboxylic acid ((S)-2-methyl-1-methylcarbamoyl-propyl)-amide] | 160
5 | CNC(=O)[C@@H](NC(=O)c1ccc(-c2cccc(CNC(=O)c3cccc(N(C)C)c3)c2)o1)C(C)C [5-{3-[(3-Dimethylamino-benzoylamino)-methyl]-phenyl}-furan-2-carboxylic acid ((S)-2-methyl-1-methylcarbamoyl-propyl)-amide] | 213
6 | CNC(=O)[C@@H](NC(=O)c1ccc(-c2ccc(OCc3[nH]cnc3C)cc2)o1)C1CCOCC1 [5-[4-(5-Methyl-3H-imidazol-4-ylmethoxy)-phenyl]-furan-2-carboxylic acid [(S)-methylcarbamoyl-(tetrahydro-pyran-4-yl)-methyl]-amide] | 27
7 | CNC(=O)[C@@H](NC(=O)c1ccc(-c2cccc(CNC(=O)c3cc4ccccc4o3)c2)o1)C1CCCCC1 [N-[3-(5-{[(1S)-1-cyclohexyl-2-(methylamino)-2-oxoethyl]carbamoyl}furan-2-yl)benzyl]-1-benzofuran-2-carboxamide] | 11
8 | CNC(=O)[C@@H](NC(=O)c1ccc(-c2cccc(CNC(=O)c3ccoc3C)c2)o1)C1CCCCC1 [N-[(1S)-1-cyclohexyl-2-(methylamino)-2-oxoethyl]-5-[3-({[(2-methylfuran-3-yl)carbonyl]amino}methyl)phenyl]furan-2-carboxamide] | 330
9 | CNC(=O)[C@@H](NC(=O)c1ccc(-c2ccc(-c3ccc4[nH]ccc4c3)cn2)o1)C(C)C [5-[5-(1H-Indol-5-yl)-pyridin-2-yl]-furan-2-carboxylic acid ((S)-2-methyl-1-methylcarbamoyl-propyl)-amide] | 260
10 | CNC(=O)[C@@H](NC(=O)c1ccc(-c2cccc(CNC(=O)c3ccnc(Cl)n3)c2)o1)C(C)C [2-Chloro-N-[3-(5-{[(1S)-2-methyl-1-(methylcarbamoyl)propyl]carbamoyl}-2-furyl)benzyl]pyrimidine-4-carboxamide] | 9
11 | CNC(=O)[C@@H](NC(=O)c1ccc(-c2cccc(CNC(=O)c3ccnc(C(F)(F)F)n3)c2)o1)C1CCOCC1 [N-[3-(5-{[(1S)-2-(methylamino)-2-oxo-1-(tetrahydro-2H-pyran-4-yl)ethyl]carbamoyl}-2-furyl)benzyl]-2-(trifluoromethyl)pyrimidine-4-carboxamide] | 2
12 | CNC(=O)[C@@H](NC(=O)c1ccc(-c2cccc(CNC(=O)c3cccnn3)c2)o1)C(C)C [N-[3-(5-{[(1S)-2-methyl-1-(methylcarbamoyl)propyl]carbamoyl}-2-furyl)benzyl]pyridazine-3-carboxamide] | 420
13 | CNC(=O)[C@@H](NC(=O)c1ccc(-c2ccc(NC(=O)c3cccc(C)n3)cc2)o1)C1CCCCC1 [N-[4-(5-{[(1S)-1-cyclohexyl-2-(methylamino)-2-oxoethyl]carbamoyl}furan-2-yl)phenyl]-6-methylpyridine-2-carboxamide] | 17
14 | CNC(=O)[C@@H](NC(=O)c1ccc(-c2ccc(OCc3ccccn3)cn2)o1)C1CCCCC1 [N-[(1S)-1-cyclohexyl-2-(methylamino)-2-oxoethyl]-5-[5-(pyridin-2-ylmethoxy)pyridin-2-yl]furan-2-carboxamide] | 21
15 | CNC(=O)[C@@H](NC(=O)c1ccc(-c2ccc(OCc3ccnc(C)c3)cn2)o1)C1CCCCC1 [N-[(1S)-1-cyclohexyl-2-(methylamino)-2-oxoethyl]-5-{5-[(2-methylpyridin-4-yl)methoxy]pyridin-2-yl}furan-2-carboxamide] | 1
16 | CNC(=O)[C@@H](NC(=O)c1ccc(-c2cccc(CNC(=O)C3CCCCN3)c2)o1)C(C)C (stereo partly drawn) [N-[3-(5-{[(1S)-2-methyl-1-(methylcarbamoyl)propyl]carbamoyl}-2-furyl)benzyl]piperidine-2-carboxamide] | 270
17 | CNC(=O)[C@@H](NC(=O)c1ccc(-c2cccc(CNC(=O)c3ccc(C#N)cc3)c2)o1)C(C)C [5-{3-[(4-Cyano-benzoylamino)-methyl]-phenyl}-furan-2-carboxylic acid ((S)-2-methyl-1-methylcarbamoyl-propyl)-amide] | 185

Row | SMILES | IC50 [nM]
18 | CNC(=O)[C@@H](NC(=O)c1ccc(-c2ccc(OCc3ccccc3)cn2)o1)C(C)(C)O [5-(5-Benzyloxy-pyridin-2-yl)-furan-2-carboxylic acid ((S)-2-hydroxy-2-methyl-1-methylcarbamoyl-propyl)-amide] | 18
19 | CNC(=O)[C@@H](NC(=O)c1ccc(-c2cccc(CNC(=O)c3ccc(C)c(C)c3)c2)o1)C(C)C [5-{3-[(3,4-Dimethyl-benzoylamino)-methyl]-phenyl}-furan-2-carboxylic acid ((S)-2-methyl-1-methylcarbamoyl-propyl)-amide] | 156
20 | CNC(=O)[C@@H](NC(=O)c1ccc(-c2ccc(NC(=O)c3occc3C)cc2)o1)C1CCCCC1 [N-[4-(5-{[(1S)-1-cyclohexyl-2-(methylamino)-2-oxoethyl]carbamoyl}furan-2-yl)phenyl]-3-methylfuran-2-carboxamide] | 93
21 | CNC(=O)[C@@H](NC(=O)c1ccc(-c2cccc(CNC(=O)c3ccccc3)c2)o1)C(C)C [5-[3-(Benzoylamino-methyl)-phenyl]-furan-2-carboxylic acid ((S)-2-methyl-1-methylcarbamoyl-propyl)-amide] | 205
22 | CNC(=O)[C@@H](NC(=O)c1ccc(-c2ccc(Cl)cn2)o1)C1CCCCC1 [5-(5-Chloropyridin-2-yl)-N-[(1S)-1-cyclohexyl-2-(methylamino)-2-oxoethyl]furan-2-carboxamide] | 245
23 | CNC(=O)[C@@H](NC(=O)c1ccc(-c2ccc(-c3ccccc3)cn2)o1)C(C)C [5-(5-Phenyl-pyridin-2-yl)-furan-2-carboxylic acid ((S)-2-methyl-1-methylcarbamoyl-propyl)-amide] | 79
24 | CNC(=O)[C@@H](NC(=O)c1ccc(-c2cccc(CNC(=O)NC(C)(C)C)c2)o1)C1CCCCC1 [5-(3-{[(tert-Butylcarbamoyl)amino]methyl}phenyl)-N-[(1S)-1-cyclohexyl-2-(methylamino)-2-oxoethyl]furan-2-carboxamide] | 105
25 | CNC(=O)[C@@H](NC(=O)c1ccc(-c2ccc(OCc3cn(C)cn3)cn2)o1)C1CCCCC1 [N-[(1S)-1-cyclohexyl-2-(methylamino)-2-oxoethyl]-5-{5-[(1-methyl-1H-imidazol-4-yl)methoxy]pyridin-2-yl}furan-2-carboxamide] | 119
26 | CNC(=O)[C@@H](NC(=O)c1ccc(-c2cccc(CNC(=O)c3ccco3)c2)o1)C1CCCCC1 [N-[(1S)-1-cyclohexyl-2-(methylamino)-2-oxoethyl]-5-(3-{[(furan-2-ylcarbonyl)amino]methyl}phenyl)furan-2-carboxamide] | 75
27 | CNC(=O)[C@@H](NC(=O)c1ccc(-c2ccc(NC(=O)c3ccc(C)o3)cc2)o1)C1CCCCC1 [N-[4-(5-{[(1S)-1-cyclohexyl-2-(methylamino)-2-oxoethyl]carbamoyl}furan-2-yl)phenyl]-5-methylfuran-2-carboxamide] | 57
28 | CNC(=O)[C@@H](NC(=O)c1ccc(-c2cccc(CNC(=O)c3cccc(OC)c3)c2)o1)C(C)C [5-{3-[(3-Methoxy-benzoylamino)-methyl]-phenyl}-furan-2-carboxylic acid ((S)-2-methyl-1-methylcarbamoyl-propyl)-amide] | 163
29 | CNC(=O)[C@@H](NC(=O)c1ccc(-c2ccc(-c3ccnc(C)c3)cn2)o1)C(C)C [5-(2′-Methyl-[3,4′]bipyridinyl-6-yl)-furan-2-carboxylic acid ((S)-2-methyl-1-methylcarbamoyl-propyl)-amide] | 110
30 | CNC(=O)[C@@H](NC(=O)c1ccc(-c2ccc(NC(=O)c3cc4ccccc4o3)cc2)o1)C1CCCCC1 [N-[4-(5-{[(1S)-1-cyclohexyl-2-(methylamino)-2-oxoethyl]carbamoyl}furan-2-yl)phenyl]-1-benzofuran-2-carboxamide] | 496
31 | CNC(=O)[C@@H](NC(=O)c1ccc(-c2cccc(CNC(=O)c3cc(Br)n(C)n3)c2)o1)C(C)C [5-Bromo-1-methyl-1H-pyrazole-3-carboxylic acid 3-[5-((S)-2-methyl-1-methylcarbamoyl-propylcarbamoyl)-furan-2-yl]-benzylamide] | 13
32 | CNC(=O)[C@@H](NC(=O)c1ccc(-c2cccc(CNC(=O)c3cccc(C(F)(F)F)n3)c2)o1)C1CCOCC1 [N-[3-(5-{[(1S)-2-(methylamino)-2-oxo-1-(tetrahydro-2H-pyran-4-yl)ethyl]carbamoyl}-2-furyl)benzyl]-6-(trifluoromethyl)pyridine-2-carboxamide] | 2
33 | CNC(=O)[C@@H](NC(=O)c1ccc(-c2ccc(-c3cnn(C)c3)cc2)o1)C1CCCCC1 [N-[(1S)-1-cyclohexyl-2-(methylamino)-2-oxoethyl]-5-[4-(1-methyl-1H-pyrazol-4-yl)phenyl]furan-2-carboxamide] | 25
34 | CNC(=O)[C@@H](NC(=O)c1ccc(-c2ccc(NS(C)(=O)=O)cc2)o1)C1CCCCC1 [N-[(1S)-1-cyclohexyl-2-(methylamino)-2-oxoethyl]-5-{4-[(methylsulfonyl)amino]phenyl}furan-2-carboxamide] | 455
